Consider eleven compounds from paper PMC8330735 (Journal of Enzyme Inhibition and Medicinal Chemistry, 2021).

Each structure is given as a SMILES string.

One data set deals with T1, ovine COX-1 (Ovis aries, UniProt P05979).
T1 sequence (P05979 25-600): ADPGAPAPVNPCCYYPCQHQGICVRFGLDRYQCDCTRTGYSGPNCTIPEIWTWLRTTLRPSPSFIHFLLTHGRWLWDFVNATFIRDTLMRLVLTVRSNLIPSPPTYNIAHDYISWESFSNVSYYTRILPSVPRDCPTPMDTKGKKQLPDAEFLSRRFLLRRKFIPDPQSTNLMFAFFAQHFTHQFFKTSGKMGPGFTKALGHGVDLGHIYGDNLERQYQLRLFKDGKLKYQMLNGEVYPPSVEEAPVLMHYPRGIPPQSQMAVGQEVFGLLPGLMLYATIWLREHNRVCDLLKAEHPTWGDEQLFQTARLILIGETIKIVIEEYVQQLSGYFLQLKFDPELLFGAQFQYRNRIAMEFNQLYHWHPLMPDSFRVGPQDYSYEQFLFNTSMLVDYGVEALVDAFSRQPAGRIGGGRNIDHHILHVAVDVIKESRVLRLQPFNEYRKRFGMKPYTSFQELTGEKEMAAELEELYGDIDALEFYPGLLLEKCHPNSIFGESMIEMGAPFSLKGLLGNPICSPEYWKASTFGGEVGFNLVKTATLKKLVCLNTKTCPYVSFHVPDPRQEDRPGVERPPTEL
The experiment in a line: In vitro COX-1 inhibitory assay (colorimetric Cayman kit).

For a further data set, the target named is T2, human recombinant COX-2 (Homo sapiens, UniProt P35354).
T2 sequence (P35354 18-604): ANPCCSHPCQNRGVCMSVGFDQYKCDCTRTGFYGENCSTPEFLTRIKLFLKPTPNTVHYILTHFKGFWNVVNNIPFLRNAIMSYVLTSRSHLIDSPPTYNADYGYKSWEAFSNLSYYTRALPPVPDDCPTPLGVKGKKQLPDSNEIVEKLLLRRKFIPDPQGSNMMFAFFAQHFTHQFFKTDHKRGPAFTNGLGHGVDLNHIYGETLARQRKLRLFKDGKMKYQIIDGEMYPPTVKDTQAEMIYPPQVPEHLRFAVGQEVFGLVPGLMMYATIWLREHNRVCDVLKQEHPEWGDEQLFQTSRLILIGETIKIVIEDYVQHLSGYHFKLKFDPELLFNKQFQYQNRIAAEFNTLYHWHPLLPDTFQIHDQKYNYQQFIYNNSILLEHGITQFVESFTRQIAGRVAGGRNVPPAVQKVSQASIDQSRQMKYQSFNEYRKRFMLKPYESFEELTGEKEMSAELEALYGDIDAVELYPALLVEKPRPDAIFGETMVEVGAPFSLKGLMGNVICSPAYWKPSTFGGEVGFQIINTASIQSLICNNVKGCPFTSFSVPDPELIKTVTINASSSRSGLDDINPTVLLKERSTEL
The experiment in a line: In vitro COX-2 inhibitory assay (colorimetric Cayman kit). The note with it: for Selectivity Index (SI): COX-1 IC50/COX-2 IC50.

The subject of data set [1] is carrageenan-induced rat paw oedema. The experiment in a line: Carrageenan-induced rat paw oedema test. It is filed as in vivo. Conditions: compounds and celecoxib 50 mg/kg, ibuprofen and indomethacin 20 mg/kg; for Mean oedema thickness 1h: 1 h after carrageenan; for Mean oedema thickness 1h / Mean oedema thickness 2h / Mean oedema thickness 3h / Mean oedema thickness 4h / Mean oedema thickness 5h / Mean oedema thickness 24h / Mean oedema thickness 0h: mean ± SEM, n = 5; for Mean oedema thickness 2h: 2 h after carrageenan; for Mean oedema thickness 3h: 3 h after carrageenan; for Mean oedema thickness 4h: 4 h after carrageenan; for Mean oedema thickness 5h: 5 h after carrageenan; for Mean oedema thickness 24h: 24 h after carrageenan; for Mean oedema thickness 0h: before carrageenan (0 h); for Average oedema inhibition%: from area under the curve of all time points. How it is done: The rats were divided into nine groups (n = 5/group). All tested compounds were suspended in 1% Tween-80. Group 1, controls, were given the vehicle (1% Tween80, 10 ml/kg). […] The rats were given the drugs 1 h before the injection of carrageenan solution (1% in 0.9% NaCl, 0.1 ml) (Sigma Aldrich, USA) in the sub-planter tissue of the right hind paw. The paw thickness (mm) was measured using a calliper before (0 h) and after carrageenan injection at 1, 2, 3, 4, 5 and 24 h. The inhibition of oedema thickness was calculated using the following formula (control– drug/control) × 100.
On the technique in general: Carrageenan injected into the paw causes an acute inflammation.

The subject of data set [2] is NO production in LPS-activated RAW 264.7 macrophages. The experiment in a line: NO production in LPS-activated RAW 264.7 macrophages (DAF-FM). It is filed as cell-based. Conditions: Mus musculus, RAW264.7; LPS 1 µg/mL activated RAW 264.7. As for the experimental part: HCA7 colorectal cancer cell line was obtained from Sigma. […] Louis, MO) containing 10% heat-inactivated foetal bovine serum (HI-FBS) (Gibco, USA), 100 μg/mL streptomycin (Invitrogen, USA), and […] penicillin (Invitrogen, USA)[40]. HCA7 and RAW 264.7 cells were cultured in Dulbecco's minimal essential media (DMEM, Invitrogen) containing 10% HI-FBS, sodium pyruvate (1 mM), penicillin ([…]), and streptomycin (100 mg/m)[41]^,[42]. […] Molecular Probes, USA). Briefly, RAW 264.7 cells were cultured in black 96-well plates (200,000 cells/mL, 100 µl/well) for 24 h. […] The fluorescence intensity, which is directly proportional to NO levels, was quantified, as detailed in our previous study. IC50 values were calculated from the dose–response curves.

For data set [3], the system named is ROS production in LPS-activated RAW 264.7 macrophages. The experiment in a line: ROS production in LPS-activated RAW 264.7 macrophages (DCFH-DA). Conditions: Mus musculus, RAW264.7; LPS 1 µg/mL activated RAW 264.7. In kind it is cell-based. How it is done: HCA7 colorectal cancer cell line was obtained from Sigma. […] Louis, MO) containing 10% heat-inactivated foetal bovine serum (HI-FBS) (Gibco, USA), 100 μg/mL streptomycin (Invitrogen, USA), and […] penicillin (Invitrogen, USA)[40]. HCA7 and RAW 264.7 cells were cultured in Dulbecco's minimal essential media (DMEM, Invitrogen) containing 10% HI-FBS, sodium pyruvate (1 mM), penicillin ([…]), and streptomycin (100 mg/m)[41]^,[42]. […] The cells were cultured, incubated with the different test compounds, and activated with LPS (1 µg/mL) as detailed above. […] IC50 values were calculated from the dose–response curves.

The subject of data set [4] is stomach ulceration in rats. Conditions: rat, in vivo, 2 days.
Procedure: The rats from the previous experiment were fasted for 12 h., followed by the administration of additional doses of the selected compounds or the two references for two consecutive days. Six hrs after the last treatment, the animals were sacrificed, and their stomachs were removed, washed with saline solution (0.9%) and examined for ulceration using a magnifying lens. The ulcer scores were estimated according to the method prescribed by Kulkarni and as detailed in our previous studies[36–38]. The following scores were individually assigned to each lesion: normal coloured stomach, 0; red colouration, 0.5; spot ulcers, 1; haemorrhagic streaks, 1.5; ulcer >3 but <5 mm, 2; and ulcers >5 mm, 3.

Procedure for human recombinant COX-2: (§1) All the newly synthesised compounds were tested for their ability to inhibit COX-1 and COX-2 enzymes using a screening assay method.
Procedure for ovine COX-1: as §1

`COc1ccc(C2N(NC(=O)Cc3c[nH]c4ccccc34)C(=O)c3ccccc3N2C)cc1` (centres unmarked) [4c, 2-(1 h-indol-3-yl)-N-(2-(4-methoxyphenyl)-1-methyl-4-oxo-1,4-dihydroquinazolin-3(2H)-yl)acetamide] yielded a melting point of 83 to 85 °C. The compound also displayed an IC50 against ovine COX-1 of 11.2 ± 0.13 µM. On human recombinant COX-2, the 50% inhibitory concentration (IC50) came out at 0.03 µM and the “Selectivity Index (SI)” value is recorded as 373.67.

As for `CC(C)Cc1ccc(C(C)C(=O)NN2C(=O)c3ccccc3N(C)C2c2ccccc2)cc1` (centres unmarked) [7a, 2-(4-Isobutylphenyl)-N-(1-methyl-4-oxo-2-phenyl-1,4-dihydroquinazolin-3(2H)-yl) propenamide], the melting point was 85 to 89 °C. The same compound registered an IC50 on ovine COX-1 of 12.76 ± 0.1 µM. At human recombinant COX-2, the half-maximal inhibitory concentration (IC50) was 0.05 ± 0.13 µM and the “Selectivity Index (SI)” value came out at 255.02.

`CC(C)Cc1ccc(C(C)C(=O)NN2C(=O)c3ccccc3N(C)C2c2ccc(Cl)cc2)cc1` (centres unmarked) [7b, N-(2-(4-chlorophenyl)-1-methyl-4-oxo-1,4-dihydroquinazolin-3(2H)-yl)-2–(4-isobutylphenyl) propenamide] registered a melting point of 120 to 125 °C. Moreover, the IC50 against ovine COX-1 turned out to be 13.35 ± 0.1 µM. Besides, at human recombinant COX-2, the half-inhibitory concentration (IC50) was 0.04 µM and the “Selectivity Index (SI)” value came out at 333.75.

Take `COc1ccc(C2N(NC(=O)C(C)c3ccc(CC(C)C)cc3)C(=O)c3ccccc3N2C)cc1` (centres unmarked) [7d, 2-(4-Isobutylphenyl)-N-(2-(4-methoxyphenyl)-1-methyl-4-oxo-1,4-dihydroquinazolin-3(2H)-yl) propenamide]: the melting point is 92 to 95 °C. The compound also yielded an IC50 against ovine COX-1 of 14.4 ± 0.16 µM. At human recombinant COX-2, the IC50 stood at 0.04 µM and the “Selectivity Index (SI)” value was found to be 359.25.

For `CC(C)Cc1ccc(C(C)C(=O)NN2C(=O)c3ccccc3N(C)C2c2ccc(F)cc2)cc1` (centres unmarked) [7e], the melting point is 90 to 95 °C. The same compound yielded an IC50 on ovine COX-1 of 11.8 ± 0.15 µM. Also, at human recombinant COX-2, the 50% inhibitory concentration (IC50) stood at 0.04 µM and the “Selectivity Index (SI)” value turned out to be 296.25.

`NNC(=O)CSc1nc2ccccc2c(=O)n1NC(=O)c1ccccc1` [13a, N-(2-((2-hydrazinyl-2-oxoethyl)thio)-4-oxoquinazolin-3(4H)-yl)benzamide] registered a melting point of 208 to 213 °C. This compound showed a half-inhibitory concentration (IC50) on ovine COX-1 of 10.2 ± 0.14 µM. Also, at human recombinant COX-2, the 50% inhibitory concentration (IC50) was 0.04 µM and the “Selectivity Index (SI)” value turned out to be 254.75.

The compound `O=C(CSc1nc2ccccc2c(=O)n1NC(=O)c1ccccc1)NNC(=O)c1ccccc1` [14a, N-(2-((2-(2-benzoylhydrazinyl)-2-oxoethyl)thio)-4-oxoquinazolin-3(4H)-yl)benzamide] returned a melting point of 194 to 198 °C. Further, the IC50 against ovine COX-1 stood at 10.9 ± 0.2 µM. At human recombinant COX-2, the IC50 is 0.03 µM and the “Selectivity Index (SI)” value came to 362.00.

As for `O=C(CSc1nc2ccccc2c(=O)n1NC(=O)c1ccccc1)NNC(=O)c1ccc(Cl)cc1` [14b, N-(2-((2-(2-(4-chlorobenzoyl)hydrazinyl)-2-oxoethyl)thio)-4 oxoquinazolin-3(4H)-yl)benzamide], the melting point was 215 to 220 °C. At ovine COX-1, this compound came in with an IC50 of 12.98 ± 0.12 µM. In addition, on human recombinant COX-2, the concentration for half-maximal inhibition (IC50) turned out to be 0.04 µM and the “Selectivity Index (SI)” value is listed as 324.5.

Consider `O=C(CSc1nc2ccccc2c(=O)n1NC(=O)Cc1ccccc1)NNC(=O)c1ccc(Cl)cc1` [14d, N-(2-((2-(2-(4-chlorobenzoyl)hydrazinyl)-2-oxoethyl)thio)-4-oxoquinazolin-3(4H)-yl)-2-phenylacetamide], for which the melting point was in the range of 221 to 226 °C. Also, the 50% inhibitory concentration (IC50) against ovine COX-1 was determined as 12.56 ± 0.11 µM. Moreover, on human recombinant COX-2, the IC50 worked out at 0.04 µM and the “Selectivity Index (SI)” value stood at 314.00.

Turning to `CC(C)Cc1ccc(C(C)C(=O)O)cc1` (centres unmarked) [Ibuprofen, reference compound], in data set [1], the “Mean oedema thickness 1h” value is 1.76 ± 0.07 mm, the “Mean oedema thickness 2h” value turned out to be 2.00 ± 0.15 mm, the “Mean oedema thickness 3h” value stood at 1.74 ± 0.08 mm and the “Mean oedema thickness 4h” value was determined as 1.23 ± 0.16 mm. In data set [1], the “Mean oedema thickness 5h” value turned out to be 1.36 ± 0.18 mm, the “Mean oedema thickness 24h” value is 0.48 ± 0.15 mm, the “Mean oedema thickness 0h” value is recorded as 0.00 ± 0.00 mm and the Average oedema inhibition% amounted to 47.18%. In data set [2], this compound came in with an IC50 of 18.8 ± 1.19 µM. This compound yielded a half-inhibitory concentration (IC50) in data set [3] of 36.4 ± 1.45 µM. Also, in data set [4], the “Average Ulcer number” value stood at 3.8, the “Lesion Incidence (%)” value is recorded as 100% and the “Number of rats with ulcer” value was 5.

In the case of `COc1ccc2c(c1)c(CC(=O)O)c(C)n2C(=O)c1ccc(Cl)cc1` [Indomethacin, reference compound], in data set [1], the “Mean oedema thickness 1h” value was 2.00 ± 0.14 mm, the “Mean oedema thickness 2h” value was 2.21 ± 0.12 mm, the “Mean oedema thickness 3h” value worked out at 1.82 ± 0.13 mm and the “Mean oedema thickness 4h” value worked out at 2.02 ± 0.16 mm. In data set [1], the “Mean oedema thickness 5h” value is reported as 1.87 ± 0.18 mm, the “Mean oedema thickness 24h” value is reported as 0.49 ± 0.10 mm, the “Mean oedema thickness 0h” value is given as 0.00 ± 0.00 mm and the Average oedema inhibition% was 33.81%. The compound further had a 50% inhibitory concentration (IC50) in data set [2] of 25.3 ± 1.01 µM. In addition, the IC50 in data set [3] is 68.9 ± 1.29 µM. In addition, in data set [4], the “Average Ulcer number” value came out at 12.4, the “Lesion Incidence (%)” value was found to be 100% and the “Number of rats with ulcer” value is given as 5.

In general, melting point refers to the temperature, or range, at which the solid turns liquid. The term IC50 denotes the midpoint of a concentration-inhibition curve.
